Data taken from PubChem BioAssay AID493003 (Sanford-Burnham Center for Chemical Genomics, 2010).
Active and inactive are the calls of the source. How the calls were made is not given here.

System: S. cerevisiae tim10-1 mutant growth, luminescence
Test: growth inhibitors of tim10-1 mutant yeast, dose response, luminescence, S. cerevisiae, uHTS hits (AID 493003);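 further: yeast growth measured after about 22 hours at 25 °C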

Cc1ccc(OCC(=O)O/N=C(\N)Cc2ccc(Cl)cc2)cc1
IC50: 9.22 µM

CCOc1ccc(NC(=O)c2cccc3c2C(=O)N(Cc2cccnc2)C3)cc1
IC50: 22.8 µM

O=S(=O)(c1ccc2c(c1)OCCO2)N1CCC(O)(c2ccc(Cl)cc2)CC1
IC50: 67.1 µM

Nc1cc(Cl)ccc1Oc1ccc2ccccc2c1
IC50: 23.1 µM

Cc1cc(C)cc(OCC(=O)N2N=C(C(F)(F)F)CC2(O)C(C)(C)C)c1 (stereo unspecified)
IC50: 77.8 µM

CC(CC(=O)Nc1ncc([N+](=O)[O-])s1)c1ccccc1 (stereo unspecified)
IC50: 18.5 µM

CC/C(=N\Nc1ccccc1[N+](=O)[O-])c1ccc(O)cc1
IC50: 20 µM

CC1=CC(C)(C)N2C(=O)C(=O)c3cc(OC(=O)c4ccco4)cc1c32
IC50: 33.4 µM

CCC1CCCCN1c1nc(-c2ccncc2)nc2ccccc12 (stereo unspecified)
IC50: 34.3 µM

Nc1ccccc1C(=O)/C=C/c1ccc2c(c1)OCO2
IC50: 14.8 µM

O=C(CS(=O)(=O)c1ccccc1)Nc1nc(-c2ccccc2)cs1
IC50: 24.2 µM

COc1ccc(-c2csc(CCn3nc(C)cc3C)n2)cc1
IC50: 30.1 µM

COC(=O)c1cc(NC(=S)Nc2cc(Cl)cc(Cl)c2)cc(C(=O)OC)c1
IC50: 23 µM

Cc1ccc(NC(=S)Nc2ccc(Cl)c(Cl)c2)c(OC(F)F)c1
IC50: 14 µM

Oc1ccccc1-c1nc(NCc2cccnc2)c2ccccc2n1
IC50: 60.5 µM

C=CCn1c(SCc2c(F)cccc2Cl)nnc1-c1ccco1
IC50: 34.8 µM

Cc1ccc(NC(=O)c2cc(S(=O)(=O)NCCC3=CCCCC3)ccc2F)cc1
IC50: 10.8 µM

CCCCn1nc(NC(=O)c2cccs2)c2cc3ccccc3nc21
IC50: 73.9 µM

C[C@@H]1CC=C[C@H]2[C@H]1C(=O)N(Cc1ccccc1)[C@H]2c1ccc(-c2ccoc2)cc1F
IC50: 12.4 µM

COC(=O)c1cc(C)[nH]c2c(C)cc3nc4ccccc4c3c12
IC50: 21 µM

Clc1cccc(C2Nc3cccc4cccc(c34)N2)c1Cl
IC50: 25.7 µM

Clc1ccc(CNc2nc(CN3CCOCC3)nc3scc(-c4ccccc4)c23)cc1
IC50: 13.3 µM

O=[N+]([O-])c1cc(Cl)ccc1N1CCN(c2ccccc2O)CC1
IC50: 32.3 µM

Cc1c(C(=O)NC2CCCc3ccccc32)oc2ccccc12 (stereo unspecified)
IC50: 20.2 µM

Cc1cc(Br)c(Cl)cc1NC(=O)CN1C(=O)C2C3CC(c4ccccc4)C(C3)C2C1=O (stereo unspecified)
IC50: 27.1 µM

CCOc1ccccc1N1CCN(C(=O)Nc2ccc(F)c(Cl)c2)CC1
IC50: 60.6 µM

COc1cc(OC)c(C(=O)O/N=C(\N)c2ccc(C)cc2)cc1OC
IC50: 14.5 µM

CCOc1cc(-c2c(C#N)c(N)nc3c2CCCC3C)ccc1O (stereo unspecified)
IC50: 43.8 µM

O=C(/C=C/c1cccs1)c1cc(Br)ccc1OC(=O)N1CCOCC1
IC50: 36.4 µM

CCCC(=O)NC(=S)Nc1ccc(Cl)cn1
IC50: 30.1 µM

CCOC(=O)c1c(-c2ccc(C)o2)csc1NC(=S)NC(=O)N(C)C
IC50: 19.5 µM

CC(C)c1nnc(NC(=O)CCS(=O)(=O)c2nc(-c3cccs3)cc(C(F)(F)F)n2)s1
IC50: 11.9 µM

COc1ccc(C2(O)CC3CCC(C2)N3c2cc(C)nc(-c3ccccc3)n2)cc1 (stereo unspecified)
IC50: 18.2 µM

COC(C/C=C/C(=O)COCc1ccccc1)OC
IC50: 37.2 µM

Cc1nc(Nc2ccc(Cl)cc2Cl)sc1C(=O)Nc1ccccc1
IC50: > 100 µM (inactive)

O=C(c1ccc2c(c1)OCCO2)N1CCN(c2ncc(C(F)(F)F)cc2Cl)CC1
IC50: 68.8 µM

S=C1NC(c2cccs2)=CC(c2ccc(Br)cc2)N1 (stereo unspecified)
IC50: 18.1 µM

N#Cc1c(N)nc(SCC(=O)C23CC4CC(CC(C4)C2)C3)c(C#N)c1-c1ccc(Cl)cc1
IC50: 41.6 µM

Fc1ccccc1CNc1ccc(Cl)c(Cl)c1
IC50: 26.9 µM

CN(C)c1ccc(-[n+]2c(-c3ccccc3)cc(-c3ccccc3)cc2-c2ccccc2)cc1
IC50: 23.7 µM

Cc1c(C(=O)N2CCc3ccccc3C2)sc2nc(-c3ccccc3)cn12
IC50: 37.2 µM

O=C(c1cc(COc2ccc(F)cc2Cl)on1)N1CCN(c2cnccn2)CC1
IC50: 11.7 µM

CCCOc1ccc(N2C(=O)CC(N3CCC(O)(c4cccc(C(F)(F)F)c4)CC3)C2=O)cc1 (stereo unspecified)
IC50: 13 µM

N/C(=N\OC(=O)c1cccc2ccccc12)c1ccncc1
IC50: 40.8 µM

CC1(CC(=O)N/N=C/c2ccc(OCc3ccc(Cl)cc3Cl)cc2)OCCCO1
IC50: 5.77 µM

N/C(=N\OC(=O)Cc1ccc([N+](=O)[O-])cc1)c1cccc(Br)c1
IC50: 27.4 µM

Cc1ccc(F)c([C@H]2C3C=CCC(c4ccccc4)C3C(=O)N2Cc2ccccc2)c1 (stereo partly specified)
IC50: 15.2 µM

O=c1cc(-c2ccc(C3CCCCC3)cc2)[nH][nH]1
IC50: 29.5 µM

N/C(=N\OC(=O)c1ccc(F)cc1)c1ccc(Br)cc1
IC50: 6.61 µM

CC(C)Cn1c2c(c(O)c(C(=O)Nc3nccs3)c1=O)CCCC2
IC50: 96.8 µM

CC(=O)OC[C@]12CCC(C)=C[C@H]1O[C@@H]1[C@H](O)[C@@H](OC(C)=O)[C@@]2(C)[C@]12CO2
IC50: 30.8 µM

Cc1nn2c3ccccc3nc2c2ccccc12
IC50: 77.1 µM

COc1ccc(-c2oc3ncnc(NCCCN(C)C)c3c2-c2ccc(OC)cc2)cc1
IC50: 65.5 µM

CCc1ccc(NC(=S)N(Cc2ccccc2)Cc2ccccn2)cc1
IC50: 38 µM

CC(C)NC(=S)N/N=C1\CCCCC1C1CCCCC1 (stereo unspecified)
IC50: 37.5 µM

N/C(=N\OC(=O)CCC1CCCC1)c1ccc([N+](=O)[O-])cc1
IC50: 16.9 µM

Cc1ccc2nc(N3CCN(Cc4nnnn4Cc4ccccc4)CC3)c(C#N)cc2c1
IC50: 81.3 µM

C=CCN1C(=O)C(O)(CC(=O)c2ccc(-n3cccc3)cc2)c2ccccc21 (stereo unspecified)
IC50: 24.1 µM

O=C(Nc1ccc(N2CCN(C(=O)c3cccs3)CC2)cc1)c1cccc(F)c1
IC50: 40.5 µM

Cc1sc2ncnc(N3CCN(CCOc4ccc(Cl)cc4)CC3)c2c1C
IC50: 38.2 µM

COc1ccccc1C/C(N)=N/OC(=O)COc1ccccc1C
IC50: 38 µM

COc1cccc(N2C(C(C)=O)=NN(c3ccccc3)C2c2ccc(N3CCOCC3)cc2)c1 (stereo unspecified)
IC50: > 100 µM (inactive)

O=C(CSCC(=O)OCn1nnc2ccccc2c1=O)Nc1ccc(Cl)cc1
IC50: 20.2 µM

CCN1CCN(c2cc(N3CCc4ccccc4C3)c(F)cc2[N+](=O)[O-])CC1
IC50: 29 µM

Cc1c(C)n(Cc2ccccc2)c2ccc(C(=O)OCCN(C)C)cc12
IC50: 32.1 µM

CN(CCc1ccccn1)C1CC(=O)N(c2ccc(Cl)cc2)C1=O (stereo unspecified)
IC50: 24.7 µM

O=[N+]([O-])c1ccc2oc(C(O)c3cccc(Cl)c3)cc2c1 (stereo unspecified)
IC50: 15.1 µM

CCc1c(C)c2c(C)nn(-c3ccccc3)c2oc1=O
IC50: 17.2 µM

CCOC(=O)Cc1csc(NC(=O)CSc2ccc(Br)cc2)n1
IC50: 37.8 µM

C(=N\N1CCOCC1)/c1cn(-c2ccccc2)nc1-c1ccccc1
IC50: 33.7 µM

Cc1ccc(NC(=O)CN2CCC3(O)CCCCC3C2c2ccc3c(c2)OCO3)c(C)c1 (stereo unspecified)
IC50: 60.9 µM

Cc1nn(-c2ccccc2)c2c1C1(C(=O)N(C)c3ccccc31)C(C#N)=C(N)O2 (stereo unspecified)
IC50: 53.4 µM

COc1cccc2sc(Nc3nc(-c4ccccn4)cs3)nc12
IC50: 20.2 µM

O=C1CS(=O)(=O)N(Cc2cccc(F)c2)c2ccc(Br)cc21
IC50: 5.54 µM

O=C(Nc1ccc2c(c1)OCO2)c1cccc2c1C(=O)N(Cc1cccnc1)C2
IC50: 41.2 µM

C=C(C)COc1ccc(-c2[nH]ncc2Oc2ccccc2OC)c(O)c1
IC50: > 100 µM (inactive)

O=C(c1ccco1)N1CCN(c2ncnc3scc(-c4ccccc4)c23)CC1
IC50: 17.7 µM

COc1cc(C(=O)Nc2ccc(Nc3ccccc3)cc2)cc(OC)c1OC
IC50: > 100 µM (inactive)

CCSc1nnc(NC(=O)c2nc(-c3ccccc3)n(-c3ccccc3)n2)s1
IC50: 25.9 µM

CC(C)(C)c1ccc(-c2n[nH]c(=S)n2Cc2ccccc2)cc1
IC50: 33.1 µM

COc1ccc(N2C(=O)CC(Sc3nc4ccccc4s3)C2=O)cc1 (stereo unspecified)
IC50: 32.5 µM

Fc1ccccc1CNc1cc(Cl)cc(Cl)c1
IC50: 26 µM

C=CCc1c(C)nc(-c2ccccc2)nc1N/N=C/c1ccccc1
IC50: 26.2 µM

O=S(=O)(/N=C(/Sc1ccccc1)c1ccccc1)c1ccccc1
IC50: 25.7 µM

Cc1nc(CN2CCN(S(=O)(=O)c3c(Cl)cc(Br)cc3Cl)CC2)cs1
IC50: 18.6 µM

C/C(=N\O)c1cc(Cl)cc(Cl)c1O
IC50: 15 µM

Clc1cccc(CN2CCc3c([nH]c4ccccc34)C2)c1
IC50: 30.7 µM

COc1ccccc1-c1cc2ccccc2[nH]1
IC50: 46.9 µM

CCC(=O)Oc1ccc(-c2nc(-c3cccnc3)no2)cc1
IC50: 43.4 µM

Cc1cccc(NC(=S)N/N=C2/CCCCc3ccccc32)c1
IC50: 9.98 µM

Clc1ccc(Cl)c2sc(N3CCCC3)nc12
IC50: 35.7 µM

C=CC(=O)Oc1ccc(N2Cc3ccccc3C2=O)cc1
IC50: 7.16 µM

CC(C)NC(=S)N/N=C1\CCCCc2ccccc21
IC50: 13.9 µM

CCCc1cc(-c2n[nH]c(=S)n2-c2cccc(C)c2)cs1
IC50: 37.5 µM

COc1ccccc1C(=O)Nc1ccc(S(=O)(=O)N2CCCCC2)cc1
IC50: 24.9 µM

O=C(Cc1ccccc1)N/N=C/c1ccc2cccc(O)c2n1
IC50: > 100 µM (inactive)

Cc1ccc(C)c(S(=O)(=O)ON2C(=O)c3ccccc3C2=O)c1
IC50: 22.1 µM

COc1ccc(OC)c(N=c2ssnc2Cl)c1
IC50: 21 µM

COC(=O)c1cccc(Nc2cc(C)nc(-c3ccccc3O)n2)c1
IC50: > 100 µM (inactive)

COc1ccc(/C(N)=N/OC(=O)CC2CCCCC2)cc1OC
IC50: 24.2 µM

CC(C)(C)NC(=O)NC(=O)COC(=O)CCC1CCCCC1
IC50: 69 µM

O=C(CN1CCN(S(=O)(=O)c2ccc(F)cc2)CC1)Nc1ccc(Cl)c(C(F)(F)F)c1
IC50: 18.8 µM

CC1=CC(=O)C=C(C)C1=NOC(=O)/C=C\c1ccccc1
IC50: 42.4 µM

O=[N+]([O-])/C(C(Cl)=C(Cl)Cl)=C(\Sc1ccccc1)N1CCCCC1
IC50: 53 µM

N/C(=N\OC(=O)CCCOc1ccc(Cl)cc1Cl)c1ccncc1
IC50: 47.6 µM

Cc1nn(Cc2ccc(Cl)cc2)c(C)c1NC(=O)c1ccc([N+](=O)[O-])cc1
IC50: 34.2 µM

O=c1c2ccccc2oc2ccc(C#CC3(O)CCCCC3)cc12
IC50: 23.3 µM

CCOC(=O)n1c(=O)n(Cc2ccccc2Cl)c2ccccc21
IC50: 27.6 µM

COc1ccc(-n2cc(-c3ccccc3)c3c(=S)nc[nH]c32)cc1
IC50: 13 µM

Cn1ncc2c(Nc3ccc(Br)cc3)nc(Nc3ccc(Br)cc3)nc21
IC50: 18.7 µM

CC(C)CN(CC(C)C)C(=S)Nc1ccc(Cl)cc1
IC50: 15.6 µM

COc1ccc(Cn2c(-c3ccc(Br)cc3)c[n+]3ccccc23)cc1
IC50: 37.8 µM

Cc1c(C(=O)N2CCN(c3ccc(C(F)(F)F)cn3)CC2)oc2ccccc12
IC50: 41.6 µM

Cc1oc2cc(Br)c(O)c(Br)c2c1C(=O)c1ccccc1
IC50: 25.9 µM

N/C(=N\OC(=O)CCC1CCCC1)c1ccccc1
IC50: 16.7 µM

N#Cc1ccccc1Cn1c(=O)n(C2CCCC2)c(=O)c2ccccc21
IC50: 25.4 µM
